How the values were obtained:
[1] = tested on: barnyardgrass; assay: Test B pre-/postemergence herbicide test; format: in vivo, Echinochloa crus-galli
Description: (§1) Seeds selected from barnyardgrass (Echinochloa crus-galli (L.) Beauv.), Surinam grass (Urochloa decumbens (Staph) R. D. Webster, previously named Brachiaria decumbens Stapf), cocklebur (Xanthium strumarium L.), corn (Zea mays L.), large crabgrass (Digitaria sanguinalis (L.) Scop.), giant foxtail (Setaria faberi Herim.), lambsquarters (Chenopodium album L.), morningglory (Ipomoea coccinea L.), pigweed (Amaranthus retroflexus L.), rice (Oryza sativa L.) and velvetleaf (Abutilon theophrasti Medik.) were planted and treated preemergence with test chemicals formulated in a non-phytotoxic solvent mixture which included a surfactant.
(§2) At the same time, plants selected from these crop and weed species and also blackgrass (Alopecurus myosuroides Huds.), wheat (Triticum aestivum L.) and wild oat (Avena fatua L.) were treated with postemergence applications of test chemicals formulated in the same manner. Plants ranged in height from 2 to 18 cm (1- to 4-leaf stage) for postemergence treatments. Plant species in the flooded paddy test consisted of rice (Oryza sativa L.), small flower umbrella sedge (Cyperus difformis L.), ducksalad (Heteranthera limosa (Sw.) Willd.) and barnyardgrass (Echinochloa crus-galli (L.) Beauv.) grown to the 2-leaf stage for testing. Treated plants and controls were maintained in a greenhouse for 13 to 15 days, after which time all species were compared to controls and visually evaluated. Plant response ratings, summarized in Table B, are based on a scale of 0 to 100 where 0 is no effect and 100 is complete control. A dash (-) response means no test result.

[2] = tested on: Surinam grass; assay: Test B pre-/postemergence herbicide test; format: in vivo, Urochloa decumbens
Description: as §1, §2

[3] = tested on: cocklebur; assay: Test B pre-/postemergence herbicide test; format: in vivo, Xanthium strumarium
Description: as §1, §2

[4] = tested on: corn; assay: Test B pre-/postemergence herbicide test; format: in vivo, Zea mays
Description: as §1, §2

[5] = tested on: large crabgrass; assay: Test B pre-/postemergence herbicide test; format: in vivo, Digitaria sanguinalis
Description: as §1, §2

[6] = tested on: giant foxtail; assay: Test B pre-/postemergence herbicide test; format: in vivo, Setaria faberi
Description: as §1, §2

[7] = tested on: lambsquarters; assay: Test B pre-/postemergence herbicide test; format: in vivo, Chenopodium album
Description: as §1, §2

[8] = tested on: morningglory; assay: Test B pre-/postemergence herbicide test; format: in vivo, Ipomoea coccinea
Description: as §1, §2

[9] = tested on: pigweed; assay: Test B pre-/postemergence herbicide test; format: in vivo, Amaranthus retroflexus
Description: as §1, §2

[10] = tested on: velvetleaf; assay: Test B pre-/postemergence herbicide test; format: in vivo, Abutilon theophrasti
Description: as §1, §2

[11] = tested on: blackgrass; assay: Test B postemergence herbicide test; format: in vivo, Alopecurus myosuroides
Method: as §2

[12] = tested on: wheat; assay: Test B postemergence herbicide test; format: in vivo, Triticum aestivum; design: key to Wheat plant response rating: 0 = no effect, 100 = complete control
Method: as §2

[13] = tested on: wild oat; assay: Test B postemergence herbicide test; format: in vivo, Avena fatua
Method: as §2

[14] = tested on: rice; assay: Test B flooded paddy test; format: in vivo, Oryza sativa; settings: scale 0 to 100 (0 no effect, 100 complete control)
Method: as §2

[15] = tested on: small flower umbrella sedge; assay: Test B flooded paddy test; format: in vivo, Cyperus difformis; settings: scale 0 to 100 (0 no effect, 100 complete control)
Method: as §2

[16] = tested on: ducksalad; assay: Test B flooded paddy test; format: in vivo, Heteranthera limosa; settings: 1000 g ai/ha, visual rating, scale 0 to 100 (0 no effect, 100 complete control), 13 to 15 days
Method: as §2

[17] = tested on: barnyardgrass; assay: Test B flooded paddy test; format: in vivo, Echinochloa crus-galli; settings: scale 0 to 100 (0 no effect, 100 complete control)
Method: as §2

[18] = Postemergence, 125 g ai/ha, scale 0 (no effect) to 100 (complete control)
[19] = Postemergence, 500 g ai/ha, visual rating after 13 to 15 days, scale 0 (no effect) to 100 (complete control)
[20] = Preemergence, 500 g ai/ha, scale 0 to 100
[21] = preemergence, 125 g ai/ha, 0 to 100 scale, 0 is no effect, 100 is complete control
[22] = 1000 g ai/ha, visual rating, 13 to 15 days
[23] = Postemergence, 250 g ai/ha, scale 0 (no effect) to 100 (complete control)
[24] = postemergence, 62 g ai/ha, scale 0 to 100
[25] = 250 g ai/ha, scale 0 to 100, 0 no effect, 100 complete control, preemergence
[26] = Postemergence, 500 g ai/ha, scale 0 (no effect) to 100 (complete control)
[27] = postemergence, 125 g ai/ha, scale 0 to 100

C=Cn1nc(C(C)(C)C)cc1C(=O)Nc1cccc(C(=O)NCC(F)(F)F)c1 [Compound 37]
60: Barnyardgrass plant response rating [1, 20] | Cocklebur plant response rating [3, 18] | Foxtail, Giant plant response rating [6, 20] | Ducksalad plant response rating [16]
30: Barnyardgrass plant response rating [17, 22]
80: Plant response rating, Cocklebur [3, 19] | Lambsquarters plant response rating [7, 18] | Plant response rating, Pigweed [9, 21]
40: Surinam Grass plant response rating [2, 20] | Plant response rating, Velvetleaf [10, 19]
100: Lambsquarters plant response rating [7, 20] | Pigweed plant response rating [9, 20]
20: Barnyardgrass plant response rating [1, 18] | Plant response rating, Barnyardgrass [1, 19] | Plant response rating, Surinam Grass [2, 19] | Plant response rating, Crabgrass, Large [5, 19] | Foxtail, Giant plant response rating [6, 18] | Plant response rating, Foxtail, Giant [6, 19] | Plant response rating, Foxtail, Giant [6, 21] | Velvetleaf plant response rating [10, 20] | Plant response rating, Velvetleaf [10, 21] | Plant response rating, Wheat [12, 19] | Plant response rating, Oat, Wild [13, 19]
10: Plant response rating, Surinam Grass [2, 21] | Corn plant response rating [4, 20] | Crabgrass, Large plant response rating [5, 18] | Plant response rating, Lambsquarters [7, 21] | Blackgrass plant response rating [11, 18] | Plant response rating, Blackgrass [11, 19] | Oat, Wild plant response rating [13, 18]
90: Crabgrass, Large plant response rating [5, 20] | Plant response rating, Lambsquarters [7, 19] | Plant response rating, Pigweed [9, 19] | Sedge, Umbrella plant response rating [15, 22]
0: Cocklebur plant response rating [3, 20] | Morningglory plant response rating [8, 20] | Plant response rating, Morningglory [8, 21]
50: Rice plant response rating [14, 22]

CCOC(=O)c1ccc(F)c(NC(=O)c2cc(C(C)C)nn2CC)c1 [Compound 73]
0: Barnyardgrass plant response rating [1, 24] | Corn plant response rating [4, 24] | Crabgrass, Large plant response rating [5, 24] | Lambsquarters plant response rating [7, 24]
20: Cocklebur plant response rating [3, 23] | Cocklebur plant response rating [3, 24] | Pigweed plant response rating [9, 23] | Wheat plant response rating [12, 25] | Wheat plant response rating [12, 24] | Oat, Wild plant response rating [13, 24]
40: Oat, Wild plant response rating [13, 23]
50: Velvetleaf plant response rating [10, 23] | Rice plant response rating [14, 22]
30: Corn plant response rating [4, 23] | Foxtail, Giant plant response rating [6, 23] | Velvetleaf plant response rating [10, 24] | Blackgrass plant response rating [11, 23] | Blackgrass plant response rating [11, 24] | Wheat plant response rating [12, 23] | Barnyardgrass plant response rating [17, 22]
10: Barnyardgrass plant response rating [1, 23] | Surinam Grass plant response rating [2, 23] | Surinam Grass plant response rating [2, 24] | Crabgrass, Large plant response rating [5, 23] | Foxtail, Giant plant response rating [6, 24] | Lambsquarters plant response rating [7, 23] | Morningglory plant response rating [8, 23] | Morningglory plant response rating [8, 24] | Pigweed plant response rating [9, 24] | Ducksalad plant response rating [16]
80: Sedge, Umbrella plant response rating [15, 22]

CCOC(=O)c1ccc(F)c(NC(=O)c2cc(C3CC3)nn2CC)c1 [Compound 74]
70: Sedge, Umbrella plant response rating [15, 22]
50: Blackgrass plant response rating [11, 23]
10: Surinam Grass plant response rating [2, 23] | Crabgrass, Large plant response rating [5, 23] | Foxtail, Giant plant response rating [6, 23] | Foxtail, Giant plant response rating [6, 24] | Lambsquarters plant response rating [7, 23] | Morningglory plant response rating [8, 23]
20: Pigweed plant response rating [9, 23] | Pigweed plant response rating [9, 24] | Wheat plant response rating [12, 23] | Wheat plant response rating [12, 24]
0: Barnyardgrass plant response rating [1, 23] | Barnyardgrass plant response rating [1, 24] | Surinam Grass plant response rating [2, 24] | Cocklebur plant response rating [3, 23] | Cocklebur plant response rating [3, 24] | Corn plant response rating [4, 23] | Corn plant response rating [4, 24] | Crabgrass, Large plant response rating [5, 24] | Lambsquarters plant response rating [7, 24] | Morningglory plant response rating [8, 24] | Velvetleaf plant response rating [10, 24] | Wheat plant response rating [12, 25] | Rice plant response rating [14, 22] | Ducksalad plant response rating [16] | Barnyardgrass plant response rating [17, 22]
40: Oat, Wild plant response rating [13, 23]
30: Velvetleaf plant response rating [10, 23] | Blackgrass plant response rating [11, 24] | Oat, Wild plant response rating [13, 24]

CCN(CC)C(=O)c1cccc(NC(=O)c2nn(C(C)(C)C)nc2C)n1 [Compound 440]
30: Oat, Wild plant response rating [13, 26]
20: Corn plant response rating [4, 26] | Morningglory plant response rating [8, 26] | Blackgrass plant response rating [11, 26] | Blackgrass plant response rating [11, 27] | Oat, Wild plant response rating [13, 27]
0: Barnyardgrass plant response rating [1, 18] | Barnyardgrass plant response rating [1, 26] | Surinam Grass plant response rating [2, 27] | Cocklebur plant response rating [3, 26] | Cocklebur plant response rating [3, 27] | Corn plant response rating [4, 27] | Crabgrass, Large plant response rating [5, 27] | Foxtail, Giant plant response rating [6, 26] | Foxtail, Giant plant response rating [6, 27] | Lambsquarters plant response rating [7, 27] | Morningglory plant response rating [8, 27] | Pigweed plant response rating [9, 27] | Velvetleaf plant response rating [10, 26] | Velvetleaf plant response rating [10, 27] | Wheat plant response rating ([12]; 500 g ai/ha, scale 0 to 100, 0 no effect, 100 complete control, preemergence) | Wheat plant response rating [12, 26] | Wheat plant response rating [12, 27] | Rice plant response rating ([14]; 125 g ai/ha) | Sedge, Umbrella plant response rating ([15]; 125 g ai/ha) | Barnyardgrass plant response rating ([17]; 125 g ai/ha)
10: Surinam Grass plant response rating [2, 26] | Crabgrass, Large plant response rating [5, 26] | Lambsquarters plant response rating [7, 26] | Pigweed plant response rating [9, 26]
